Test results taken from patent publication US11149035B2, “Chemical compounds as H—PGDS inhibitors” (GlaxoSmithKline Intellectual Property Development Limited, priority 2017, dated 2021).

Molecular target: T1, haematopoietic prostaglandin D synthase (H-PGDS) (Homo sapiens, UniProt O60760)
T1 construct: Full length human H-PGDS cDNA (Invitrogen Ultimate ORF IOH13026) was amplified by PCR; 6-His (N); TEV protease cleavage site (N); made in house; host or cells: E. coli BL21 (DE3*)
Test: H-PGDS RapidFire high throughput mass spectrometry assay (conversion of PGH2 to PGD2)
Type: biochemical
Details: 10 nM H-PGDS, PGH2 formed in situ by COX-2 from arachidonic acid; four parameter curve fit; read-out: Potency Range (mean pIC50) (converted)
Procedure: The H-PGDS RapidFire™ mass spectrometric assay monitors conversion of prostaglandin H2 (PGH2) to prostaglandin D2 (PGD2) by haematopoietic prostaglandin D synthase (H-PGDS). In the assay format described here, the substrate (PGH2) is formed in situ by the action of cyclooxygenase-2 on arachidonic acid. This first step is set up to be fast, and generates a burst of PGH2 at ˜10 μM. The PGH2 is then further converted to PGD2 by the H-PGDS enzyme. […] Plates are then read on the RapidFire™ high throughput solid phase extraction system (Agilent) which incorporates a solid phase extraction step coupled to a triple quadrupole mass spectrometer (AB SCIEX). Relative levels of PGD2 and PGF2α, which acts as a surrogate for substrate, are measured and a percent conversion calculated. Inhibitors are characterised as compounds which lower the conversion of PGH2 to PGD2.
Full length human H-PGDS cDNA (Invitrogen Ultimate ORF IOH13026) was amplified by PCR with the addition of a 5′ 6-His tag and TEV protease cleavage site. The PCR product was digested with NdeI and XhoI and ligated into pET22b+ (Merck Novagen®). Expression was carried out in E. coli strain BL21 (DE3*) using auto-induction Overnight Express™ Instant TB medium (Merck Novagen®) supplemented with 1% glycerol. The culture was first grown at 37° C. and the temperature was reduced to 25° C. when OD600 reached 2.0. Cells were harvested by centrifugation after a further 18 hours. 10 g of E. coli cell pellet was suspended to a total volume of 80 mL in lysis buffer (20 mM Tris-Cl pH 7.5, 300 mM NaCl, 20 mM imidazole, 5 mM β-mercaptoethanol, 10% glycerol). 1 mg/mL protease inhibitors (Protease Inhibitor Cocktail Set III, Merck Calbiochem®) and 1 mg/mL lysozyme were added to the cell suspension. The suspension was then sonicated for 5 min (UltraSonic Processor VCX 750, Cole-Parmer Instrument Co.) with a micro probe (50% amplitude, 10 sec on/off) and then centrifuged at 100,000 g for 90 minutes (at 4° C.). The supernatant was loaded onto a Ni-NTA HiTrap column (5 mL, GE Healthcare, pre-equilibrated in lysis buffer). The column was washed with 10 column volumes of lysis buffer and eluted with lysis buffer containing 500 mM imidazole. The pooled protein peak fractions were concentrated using a 10 kDa centrifugal filter at 3500 g and 4° C. (Amicon Ultra-15 centrifugal filter unit with Ultracel-10 membrane from Millipore). Further purification of the concentrated protein was carried out using gel filtration chromatography on a HiLoad 26/600 Superdex 75 preparative grade column (GE Healthcare Life Sciences) using 50 mM Tris pH 7.5, 50 mM NaCl, 1 mM dithiothreitol, 1 mM MgCl2. Fractions containing the protein were pooled, concentrated as described above, and stored at −80° C.
The full length human COX-2 gene (accession number L15326) was amplified by PCR to generate an EcoRI—HindIII fragment containing an in-frame FLAG tag. This was subcloned into pFastBac 1 (Invitrogen). The COX-2 FLAG plasmid was recombined into the baculovirus genome according to the BAC-to-BAC protocol described by Invitrogen. Transfection into Spodoptera frugiperda (Sf9) insect cells was performed using Cellfectin (Invitrogen), according to the manufacturer's protocol. Super Sf9 cells were cultured in EX420 media (SAFC Biosciences) to a density of approximately 1.5×10^6 cells/mL within a wave bioreactor. Recombinant virus was added at a Multiplicity of Infection (MOI) of 5 and the culture was allowed to continue for 3 days. Cells were harvested using a continuous feed centrifuge run at 2500 g at a rate of approximately 2 L/min with cooling. The resultant cell slurry was re-centrifuged in pots (2500 g, 20 min, 4° C.) and the cell paste was stored at −80° C. 342 g of cell paste was re-suspended to a final volume of 1600 mL in a buffer of 20 mM Tris-Cl pH 7.4, 150 mM NaCl, 0.1 mM EDTA, 1.3% w/v n-octyl-[…] containing 20 Complete EDTA-free Protease Inhibitor Cocktail tablets (Roche Applied Science). […]

T1 sequence (O60760 whole entry): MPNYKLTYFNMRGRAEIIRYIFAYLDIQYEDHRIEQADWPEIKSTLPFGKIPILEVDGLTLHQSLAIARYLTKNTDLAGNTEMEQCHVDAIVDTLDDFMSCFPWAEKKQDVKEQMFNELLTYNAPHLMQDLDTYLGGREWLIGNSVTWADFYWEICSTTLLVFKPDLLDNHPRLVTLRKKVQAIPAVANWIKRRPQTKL

| SMILES | IC50 [nM] |
| --- | --- |
| C[C@H]1CCN1c1cc2ncc(C(=O)NC3CCN(C(=O)C(C)(C)O)CC3)cc2cn1 [Example 24, (S)—N-(1-(2-Hydroxy-2-methylpropanoyl)piperidin-4-yl)-7-(2-methylazetidin-1-yl)-1,6-naphthyridine-3-carboxamide] | 10 to 79.4 |
| CC(C)(O)[C@H]1CC[C@H](NC(=O)c2cnc3nc(N4CCC4)c(Cl)cc3c2)CC1 [Example 25, 7-(Azetidin-1-yl)-6-chloro-N-(trans-4-(2-hydroxypropan-2-yl)cyclohexyl)-1,8-naphthyridine-3-carboxamide] | < 10 |
| C[C@H]1CCN1c1cc2ncc(C(=O)N[C@H]3C[C@H](C(C)(C)O)C3)cc2cn1 [Example 26, N-(trans-3-(2-Hydroxypropan-2-yl)cyclobutyl)-7-((S)-2-methylazetidin-1-yl)-1,6-naphthyridine-3-carboxamide] | 10 to 79.4 |
| CC(C)(O)[C@H]1CC[C@H](NC(=O)c2cnc3nc(C4CC4)c(Cl)cc3c2)CC1 [Example 27, 6-Chloro-7-cyclopropyl-N-((trans)-4-(2-hydroxypropan-2-yl)cyclohexyl)-1,8-naphthyridine-3-carboxamide] | < 10 |
| C[C@@H]1CNC(=O)[C@H]1NC(=O)c1cnc2cc(N3CC[C@@H]3C)ncc2c1 [Example 28, N-((3S,4R)-4-Methyl-2-oxopyrrolidin-3-yl)-7-((S)-2-methylazetidin-1-yl)-1,6-naphthyridine-3-carboxamide] | 10 to 79.4 |
| O=C(N[C@H]1CCNC1=O)c1cnc2cc(C3CC3)ncc2c1 [Example 29, (S)-7-Cyclopropyl-N-(2-oxopyrrolidin-3-yl)-1,6-naphthyridine-3-carboxamide] | 10 to 79.4 |
| C[C@]1(O)CC[C@H](NC(=O)c2cnc3cc(C4CC4)ncc3c2)CC1 [Example 30, 7-Cyclopropyl-N-((1r,4r)-4-hydroxy-4-methylcyclohexyl)-1,6-naphthyridine-3-carboxamide] | 100 to 1000 |
| C[C@]1(O)C[C@@H](NC(=O)c2cnc3cc(C4CC4)ncc3c2)C1 [Example 31, 7-Cyclopropyl-N-((1s,3s)-3-hydroxy-3-methylcyclobutyl)-1,6-naphthyridine-3-carboxamide] | 100 to 1000 |
| CC(C)(O)[C@H]1C[C@H](NC(=O)c2cnc3cc(C4CC4)ncc3c2)C1 [Example 32, 7-Cyclopropyl-N-(trans-3-(2-hydroxypropan-2-yl)cyclobutyl)-1,6-naphthyridine-3-carboxamide] | 10 to 79.4 |
| O=C(N[C@H]1CC[C@@](O)(C(F)F)CC1)c1cnc2cc(C3CC3)ncc2c1 [Example 33, 7-Cyclopropyl-N-((1r,4r)-4-(difluoromethyl)-4-hydroxycyclohexyl)-1,6-naphthyridine-3-carboxamide] | 100 to 1000 |
| O=C(N[C@H]1CC[C@H](N2CC(F)C2)CC1)c1cnc2cc(C3CC3)ncc2c1 [Example 35, 7-Cyclopropyl-N-(trans-4-(3-fluoroazetidin-1-yl)cyclohexyl)-1,6-naphthyridine-3-carboxamide] | 10 to 79.4 |
| O=C(N[C@H]1CC[C@](O)(C(F)F)CC1)c1cnc2cc(C3CC3)ncc2c1 [Example 36, 7-Cyclopropyl-N-((1s,4s)-4-(difluoromethyl)-4-hydroxycyclohexyl)-1,6-naphthyridine-3-carboxamide] | 100 to 1000 |
| O=C(N[C@H]1CC[C@H](N[C@H](CO)C(F)(F)F)CC1)c1cnc2cc(C3CC3)ncc2c1 [Example 37, 7-Cyclopropyl-N-((trans)-4-(((R)-1,1,1-trifluoro-3-hydroxypropan-2-yl)amino)cyclohexyl)-1,6-naphthyridine-3-carboxamide] | 10 to 79.4 |
| O=C(N[C@H]1CC[C@H](N2CC(F)(F)C2)CC1)c1cnc2cc(C3CC3)ncc2c1 [Example 38, 7-Cyclopropyl-N-(trans-4-(3,3-difluoroazetidin-1-yl)cyclohexyl)-1,6-naphthyridine-3-carboxamide] | 10 to 79.4 |
| O=C(N[C@H]1C[C@](O)(C(F)(F)F)C1)c1cnc2cc(C3CC3)ncc2c1 [Example 40, 7-Cyclopropyl-N-((1s,3s)-3-hydroxy-3-(trifluoromethyl)cyclobutyl)-1,6-naphthyridine-3-carboxamide] | 100 to 1000 |
| C[C@]1(O)C[C@H](NC(=O)c2cnc3cc(C4CC4)ncc3c2)C1 [Example 41, 7-Cyclopropyl-N-((1r,3s)-3-hydroxy-3-methylcyclobutyl)-1,6-naphthyridine-3-carboxamide] | 100 to 1000 |
| O=C(N[C@H]1C[C@@H](N[C@H](CO)C(F)(F)F)C1)c1cnc2cc(C3CC3)ncc2c1 [Example 42, 7-Cyclopropyl-N-(cis-3-(((R)-1,1,1-trifluoro-3-hydroxypropan-2-yl)amino)cyclobutyl)-1,6-naphthyridine-3-carboxamide] | 100 to 1000 |
| O=C(N[C@H]1C[C@H](N[C@H](CO)C(F)(F)F)C1)c1cnc2cc(C3CC3)ncc2c1 [Example 43, 7-Cyclopropyl-N-(trans-3-(((R)-1,1,1-trifluoro-3-hydroxypropan-2-yl)amino)cyclobutyl)-1,6-naphthyridine-3-carboxamide] | 100 to 1000 |
| O=C(N[C@H]1CCNC1=O)c1cnc2nc(C3CC3)ccc2c1 [Example 44, (S)-7-Cyclopropyl-N-(2-oxopyrrolidin-3-yl)-1,8-naphthyridine-3-carboxamide] | 10 to 79.4 |
| C[C@]1(O)C[C@@H](NC(=O)c2cnc3nc(C4CC4)ccc3c2)C1 [Example 45, 7-Cyclopropyl-N-((1s,3s)-3-hydroxy-3-methylcyclobutyl)-1,8-naphthyridine-3-carboxamide] | 100 to 1000 |
| C[C@]1(O)C[C@H](NC(=O)c2cnc3nc(C4CC4)ccc3c2)C1 [Example 46, 7-Cyclopropyl-N-((1r,3s)-3-hydroxy-3-methylcyclobutyl)-1,8-naphthyridine-3-carboxamide] | 100 to 1000 |
| CC(C)(O)[C@H]1C[C@H](NC(=O)c2cnc3nc(C4CC4)ccc3c2)C1 [Example 47, 7-Cyclopropyl-N-(trans-3-(2-hydroxypropan-2-yl)cyclobutyl)-1,8-naphthyridine-3-carboxamide] | 10 to 79.4 |
| C[C@]1(O)CC[C@H](NC(=O)c2cnc3nc(C4CC4)ccc3c2)CC1 [Example 48, 7-Cyclopropyl-N-((1r,4r)-4-hydroxy-4-methylcyclohexyl)-1,8-naphthyridine-3-carboxamide] | 10 to 79.4 |
| COc1ccc2cc(C(=O)N[C@H]3CC[C@H](C(C)(C)O)CC3)cnc2n1 [Example 50, N-(trans-4-(2-Hydroxypropan-2-yl)cyclohexyl)-7-methoxy-1,8-naphthyridine-3-carboxamide] | 10 to 79.4 |
| COc1cc2ncc(C(=O)N[C@H]3CC[C@H](C(C)(C)O)CC3)cc2cn1 [Example 51, N-(trans-4-(2-Hydroxypropan-2-yl)cyclohexyl)-7-methoxy-1,6-naphthyridine-3-carboxamide] | 10 to 79.4 |
| O=C(N[C@H]1CC[C@@](O)(C(F)F)CC1)c1cnc2nc(C3CC3)ccc2c1 [Example 52, 7-Cyclopropyl-N-((1r,4r)-4-(difluoromethyl)-4-hydroxycyclohexyl)-1,8-naphthyridine-3-carboxamide] | 100 to 1000 |
